Measurements taken from the Kinase Knowledgebase extract (Sharma et al. 2016).

molecular target: CDK2 (UniProt P24941); assay: Enzyme Assay

| Compound | IC50 |
| --- | --- |
| COC(=O)c1ccc(CNc2nc(Cl)nc3[nH]cnc23)cc1 | > 5000 nM |
| COc1ccc(CNc2nc(NCC(CO)CCO)nc3c2ncn3C(C)C)cc1 (stereo not given) | > 5000 nM |
| CC(C)n1cnc2c(NCc3ccc(-c4ccccc4)cc3)nc(NCCO)nc21 | 3000 nM |
| CC(C)n1cnc2c(NCC3CC3)nc(N(CCO)CCO)nc21 | 2000 nM |
| CC(C)n1cnc2c(NCc3ccc(C4C=CC=CC4=S)cc3)nc(N(CCO)CCO)nc21 (stereo not given) | 600 nM |
| COc1ccc(CNc2nc(NCC(O)CN)nc3c2ncn3C(C)C)cc1 (stereo not given) | 1000 nM |
| COc1ccc(CNc2nc(NCC(O)c3c[nH]c4ccccc34)nc3c2ncn3C(C)C)cc1 (stereo not given) | 2000 nM |
| CC(C)n1cnc2c(NCc3ccc(-c4ccccc4)cc3)nc(N(C)c3ccco3)nc21 | > 5000 nM |
| COc1ccc(CNc2nc(N)nc3c2ncn3C(C)C)cc1 | 1000 nM |
| Clc1nc(NCc2ccncc2)c2ncn(C3CCCC3)c2n1 | > 5000 nM |

Results, then the compound that gave them:

| IC50 | Compound |
| --- | --- |
| 1000 nM | COc1ccc(CNc2nc(NCCCC#N)nc3c2ncn3C(C)C)cc1 |
| > 5000 nM | CNc1ccccc1C1CCCN1c1nc(NCc2ccc(OC)cc2)c2ncn(C(C)C)c2n1 (stereo not given) |
| > 5000 nM | CC(C)Cn1cnc2c(NCc3cccnc3)nc(Cl)nc21 |
| 1000 nM | COc1ccc(CNc2nc(NCc3cccnc3)nc3c2ncn3C(C)C)cc1 |
| 5000 nM | CC(C)n1cnc2c(NCCCc3ccccc3)nc(N(CCO)CCO)nc21 |
